Usually IC50 stands for the point on the concentration scale where inhibition reaches its midpoint. By Ki is commonly meant the dissociation constant of the complex between target and ligand, obtained from inhibition or displacement.

One data set deals with D(1A) dopamine receptor (Homo sapiens, UniProt P21728). In words: DRUGMATRIX: Dopamine D1 radioligand binding (ligand: [3H] SCH-23390). The format is cell membranes, CHO, Membrane. The following applies: Not Active = under 50% inhibition at 10 µM.
Data set [1] deals with Protein phosphatase 3 catalytic subunit alpha (Homo sapiens, UniProt Q08209). Set-up: species or system Escherichia coli.
Data set [2] concerns the target Beta-2 adrenergic receptor (Homo sapiens, UniProt P07550). Kind of data set: DRUGMATRIX: Adrenergic beta2 radioligand binding (ligand: [3H] CGP-12177). As to conditions: cho; Not Active = under 50% inhibition at 10 µM. It is filed as cell membranes, CHO, Membrane.
The target of data set [3] is T1, Polyunsaturated fatty acid lipoxygenase ALOX15 (Oryctolagus cuniculus, UniProt P12530).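 Note: inhibition of 15-lipoxygenase enzyme activity measured with linoleic acid as the substrate; in other assays of this panel Not Active means under 50% inhibition at 10 µM.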
T1 sequence (P12530 whole entry): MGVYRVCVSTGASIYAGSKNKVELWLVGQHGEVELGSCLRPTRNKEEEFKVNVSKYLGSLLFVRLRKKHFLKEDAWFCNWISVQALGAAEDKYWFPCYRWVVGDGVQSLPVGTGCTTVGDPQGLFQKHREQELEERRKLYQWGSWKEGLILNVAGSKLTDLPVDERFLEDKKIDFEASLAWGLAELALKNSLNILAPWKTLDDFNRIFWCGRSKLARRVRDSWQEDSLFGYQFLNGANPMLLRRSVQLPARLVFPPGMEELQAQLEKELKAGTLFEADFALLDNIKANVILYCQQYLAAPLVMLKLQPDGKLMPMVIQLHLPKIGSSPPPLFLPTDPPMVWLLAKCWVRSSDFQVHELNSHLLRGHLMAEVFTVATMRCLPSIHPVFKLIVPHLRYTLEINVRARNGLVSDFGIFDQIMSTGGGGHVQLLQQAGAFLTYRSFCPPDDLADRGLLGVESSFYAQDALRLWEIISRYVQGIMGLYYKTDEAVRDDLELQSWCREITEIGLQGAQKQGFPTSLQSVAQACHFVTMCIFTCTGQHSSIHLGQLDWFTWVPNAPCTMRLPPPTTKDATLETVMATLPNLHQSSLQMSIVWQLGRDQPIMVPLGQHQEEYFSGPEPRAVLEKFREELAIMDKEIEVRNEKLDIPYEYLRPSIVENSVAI
Kind of data set: biochemical. The format is tissue-based, Reticulocytes.

The target in the next data set is Cytochrome P450 2E1 (Homo sapiens, UniProt P05181). The following applies: bti-tn-5b1-4. Note: in other assays of this panel Not Active means under 50% inhibition at 10 µM.
The target in data set [4] is T2, Alpha-2C adrenergic receptor (Homo sapiens, UniProt P18825).
T2 sequence (P18825 whole entry): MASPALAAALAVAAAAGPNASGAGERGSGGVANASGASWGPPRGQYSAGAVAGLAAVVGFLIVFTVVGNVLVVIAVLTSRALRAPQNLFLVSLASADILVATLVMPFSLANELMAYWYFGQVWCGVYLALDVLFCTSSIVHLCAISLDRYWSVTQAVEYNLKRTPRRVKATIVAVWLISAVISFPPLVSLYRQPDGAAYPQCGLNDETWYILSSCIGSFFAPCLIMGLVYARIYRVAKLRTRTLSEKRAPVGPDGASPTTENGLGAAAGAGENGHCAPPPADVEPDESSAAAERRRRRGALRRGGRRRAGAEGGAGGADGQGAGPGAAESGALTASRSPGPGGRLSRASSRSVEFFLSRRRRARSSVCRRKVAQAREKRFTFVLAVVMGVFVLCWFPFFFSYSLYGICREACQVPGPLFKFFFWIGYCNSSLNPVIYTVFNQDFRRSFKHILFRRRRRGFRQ
Kind of data set: DRUGMATRIX: Adrenergic Alpha-2C radioligand binding (ligand: [3H] MK-912). The format is cell membranes, Sf9, Membrane. As to conditions: sf9.

Cytochrome P450 2E1, sequence (P05181 whole entry): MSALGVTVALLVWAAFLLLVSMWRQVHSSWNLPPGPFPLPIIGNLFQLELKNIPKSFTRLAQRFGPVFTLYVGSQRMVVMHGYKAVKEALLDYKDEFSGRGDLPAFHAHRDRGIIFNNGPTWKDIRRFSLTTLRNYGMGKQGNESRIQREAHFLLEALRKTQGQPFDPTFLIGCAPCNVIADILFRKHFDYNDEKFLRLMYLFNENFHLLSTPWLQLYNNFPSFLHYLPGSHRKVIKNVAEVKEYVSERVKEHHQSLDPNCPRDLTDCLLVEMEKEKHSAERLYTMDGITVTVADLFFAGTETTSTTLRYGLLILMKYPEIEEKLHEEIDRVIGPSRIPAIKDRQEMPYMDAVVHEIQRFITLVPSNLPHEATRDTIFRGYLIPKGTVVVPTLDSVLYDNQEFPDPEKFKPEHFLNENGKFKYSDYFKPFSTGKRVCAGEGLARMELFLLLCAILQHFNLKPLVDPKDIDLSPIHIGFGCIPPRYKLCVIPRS
D(1A) dopamine receptor, sequence (P21728 whole entry): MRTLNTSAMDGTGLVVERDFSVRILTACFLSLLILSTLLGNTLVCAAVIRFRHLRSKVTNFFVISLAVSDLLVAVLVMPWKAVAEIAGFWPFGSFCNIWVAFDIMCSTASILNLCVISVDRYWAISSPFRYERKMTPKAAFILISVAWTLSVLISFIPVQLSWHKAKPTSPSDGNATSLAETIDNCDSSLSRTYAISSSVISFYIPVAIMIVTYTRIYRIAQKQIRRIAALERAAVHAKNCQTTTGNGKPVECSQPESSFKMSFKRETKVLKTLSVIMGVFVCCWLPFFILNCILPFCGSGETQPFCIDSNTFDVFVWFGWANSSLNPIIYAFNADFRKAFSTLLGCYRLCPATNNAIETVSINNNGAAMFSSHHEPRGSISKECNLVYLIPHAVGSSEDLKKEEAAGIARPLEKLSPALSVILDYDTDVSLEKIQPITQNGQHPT
Beta-2 adrenergic receptor, sequence (P07550 whole entry): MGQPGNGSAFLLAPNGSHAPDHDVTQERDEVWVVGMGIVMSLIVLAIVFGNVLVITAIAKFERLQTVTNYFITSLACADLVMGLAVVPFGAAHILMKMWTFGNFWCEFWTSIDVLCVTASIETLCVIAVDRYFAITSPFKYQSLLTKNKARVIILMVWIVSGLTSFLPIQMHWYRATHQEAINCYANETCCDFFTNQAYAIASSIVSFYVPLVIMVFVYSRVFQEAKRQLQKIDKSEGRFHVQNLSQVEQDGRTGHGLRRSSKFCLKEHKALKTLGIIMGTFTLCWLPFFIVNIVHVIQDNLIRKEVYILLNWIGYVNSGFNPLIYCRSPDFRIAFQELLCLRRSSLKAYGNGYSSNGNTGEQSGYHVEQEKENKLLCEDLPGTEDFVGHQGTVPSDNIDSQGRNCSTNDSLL

Take `COC(=O)Nc1nc2cc(C(=O)c3ccc(F)cc3)ccc2[nH]1` [FLUBENDAZOLE]: the IC50 entry (on D(1A) dopamine receptor (cho); in data set [1]; in data set [2]; in data set [3] (reticulocytes); at Cytochrome P450 2E1; in data set [4]) was “Not Active” in each case. Moreover, the Ki entry on Cytochrome P450 2E1 is listed as “Not Active”.
For `CC(=O)OCC(=O)[C@@]1(O)CC[C@H]2[C@@H]3CCC4=CC(=O)CC[C@]4(C)[C@@]3(F)[C@@H](O)C[C@@]21C` [FLUDROCORTISONE ACETATE], the IC50 entry (at D(1A) dopamine receptor (cho); in data set [1]; in data set [2]; in data set [3] (reticulocytes); at Cytochrome P450 2E1; in data set [4]) was “Not Active” each time. Besides, on Cytochrome P450 2E1, the Ki result is reported as “Not Active”.
`CCOC(=O)c1ncn2c1CN(C)C(=O)c1cc(F)ccc1-2` [FLUMAZENIL]: the IC50 result (on D(1A) dopamine receptor (cho); in data set [1]; in data set [2]; in data set [3] (reticulocytes); against Cytochrome P450 2E1; in data set [4]) was “Not Active” in each case. Besides, the Ki result at Cytochrome P450 2E1 is on record as “Not Active”.
Take `O=C(O)P(=O)(O)O` [FOSCARNET]: the half-inhibitory concentration (IC50) entry (at D(1A) dopamine receptor (cho); in data set [1]; in data set [2]; in data set [3] (reticulocytes); on Cytochrome P450 2E1; in data set [4]) was “Not Active” each time. In addition, the Ki result on Cytochrome P450 2E1 is recorded as “Not Active”.
Take `Cc1ccc(C)c(OCCCC(C)(C)C(=O)O)c1` [GEMFIBROZIL]: the IC50 entry (on D(1A) dopamine receptor (cho); in data set [1]; in data set [2]; in data set [3] (reticulocytes); against Cytochrome P450 2E1; in data set [4]) was “Not Active” in each case. Besides, at Cytochrome P450 2E1, the Ki entry was “Not Active”.
Turning to `O=c1c(-c2ccc(O)cc2)coc2cc(O)cc(O)c12` [GENISTEIN], the IC50 entry on D(1A) dopamine receptor (cho) is “Not Active”; in data set [1], “Not Active”; in data set [2], “Not Active”; in data set [3] (read-out: IC50) it was 9030 nM; against Cytochrome P450 2E1, “Not Active”; in data set [4] it was “Not Active”. In addition, on Cytochrome P450 2E1, the Ki entry is given as “Not Active”.
For `CCC1=C(C)CN(C(=O)NCCc2ccc(S(=O)(=O)NC(=O)N[C@H]3CC[C@H](C)CC3)cc2)C1=O` [GLIMEPIRIDE], the IC50 entry (at D(1A) dopamine receptor (cho); in data set [1]; in data set [2]; in data set [3] (reticulocytes); at Cytochrome P450 2E1; in data set [4]) was “Not Active” in each case. On Cytochrome P450 2E1, the Ki result is on record as “Not Active”.
On to `Nc1cc(-c2ccncc2)c[nH]c1=O` [INAMRINONE], for which the IC50 result (on D(1A) dopamine receptor (cho); in data set [1]; in data set [2]; in data set [3] (reticulocytes); against Cytochrome P450 2E1; in data set [4]) was “Not Active” in each case. In addition, on Cytochrome P450 2E1, the Ki entry is “Not Active”.
Regarding `CCCCC1=NC2(CCCC2)C(=O)N1Cc1ccc(-c2ccccc2-c2nnn[nH]2)cc1` [IRBESARTAN], the IC50 entry (on D(1A) dopamine receptor (cho); in data set [1]; in data set [2]; in data set [3] (reticulocytes); against Cytochrome P450 2E1; in data set [4]) was “Not Active” in each case. Besides, the Ki result on Cytochrome P450 2E1 is “Not Active”.
Consider `CN1CCC(=C2c3ccccc3CC(=O)c3sccc32)CC1` [KETOTIFEN], for which the IC50 is 872 nM at D(1A) dopamine receptor (read-out: IC50); “Not Active” in data set [1]; “Not Active” in data set [2]; “Not Active” in data set [3] (reticulocytes); “Not Active” against Cytochrome P450 2E1; “Not Active” in data set [4]. Further, the Ki on D(1A) dopamine receptor (read-out: Ki) is 436 nM; at Cytochrome P450 2E1, “Not Active”.
With `C[N+](C)(C)C[C@H](O)CC(=O)[O-]` [LEVOCARNITINE], the IC50 entry (at D(1A) dopamine receptor (cho); in data set [1]; in data set [2]; in data set [3] (reticulocytes); at Cytochrome P450 2E1; in data set [4]) was “Not Active” in each case. On Cytochrome P450 2E1, the Ki entry was “Not Active”.
`C[C@H]1COc2c(N3CCN(C)CC3)c(F)cc3c(=O)c(C(=O)O)cn1c23.C[C@H]1COc2c(N3CCN(C)CC3)c(F)cc3c(=O)c(C(=O)O)cn1c23.O` [LEVOFLOXACIN]: the IC50 result (at D(1A) dopamine receptor (cho); in data set [1]; in data set [2]; in data set [3] (reticulocytes); against Cytochrome P450 2E1; in data set [4]) was “Not Active” in each case. Moreover, the Ki entry at Cytochrome P450 2E1 is recorded as “Not Active”.
With `CCn1cc(C(=O)O)c(=O)c2cc(F)c(N3CCNC(C)C3)c(F)c21` (stereo not given) [LOMEFLOXACIN], the IC50 result (at D(1A) dopamine receptor (cho); in data set [1]; in data set [2]; in data set [3] (reticulocytes); on Cytochrome P450 2E1; in data set [4]) was “Not Active” throughout. For the same compound, the Ki result at Cytochrome P450 2E1 is “Not Active”.
Take `CN1CCCC(CN2c3ccccc3Sc3ccccc32)C1` (stereo not given) [MEPAZINE]: the half-inhibitory concentration (IC50) result (on D(1A) dopamine receptor (cho); in data set [1]; in data set [2]; in data set [3] (reticulocytes); against Cytochrome P450 2E1; in data set [4]) was “Not Active” in each case. For the same compound, on Cytochrome P450 2E1, the Ki entry is reported as “Not Active”.
For the compound `Cc1cccc(C)c1NC(=O)C1CCCCN1C` (stereo not given) [MEPIVACAINE], the IC50 entry (on D(1A) dopamine receptor (cho); in data set [1]; in data set [2]; in data set [3] (reticulocytes); at Cytochrome P450 2E1; in data set [4]) was “Not Active” in each case. The Ki entry on Cytochrome P450 2E1 is “Not Active”.
`CN(C)C(=N)NC(=N)N` [METFORMIN]: the IC50 result (at D(1A) dopamine receptor (cho); in data set [1]; in data set [2]; in data set [3] (reticulocytes); at Cytochrome P450 2E1; in data set [4]) was “Not Active” each time. Also, the Ki entry at Cytochrome P450 2E1 is given as “Not Active”.
For the compound `CC(C)(C)NCC(O)COc1cccc2c1CC(O)C(O)C2` (stereo not given) [NADOLOL], the IC50 entry (at D(1A) dopamine receptor (cho); in data set [1]; in data set [2]; in data set [3] (reticulocytes); at Cytochrome P450 2E1; in data set [4]) was “Not Active” throughout. Also, the Ki result on Cytochrome P450 2E1 was “Not Active”.
For the compound `C[C@]12CC[C@H]3[C@@H](CCC4=CC(=O)CC[C@@H]43)[C@@H]1CC[C@@H]2O` [NANDROLONE], the IC50 result (at D(1A) dopamine receptor (cho); in data set [1]; in data set [2]; in data set [3] (reticulocytes); on Cytochrome P450 2E1; in data set [4]) was “Not Active” each time. Besides, on Cytochrome P450 2E1, the Ki result is “Not Active”.
Turning to `CN(C)C(=O)Oc1cccc([N+](C)(C)C)c1.[Br-]` [NEOSTIGMINE BROMIDE], the IC50 entry (on D(1A) dopamine receptor (cho); in data set [1]; in data set [2]; in data set [3] (reticulocytes); at Cytochrome P450 2E1; in data set [4]) was “Not Active” in each case. Further, the Ki entry on Cytochrome P450 2E1 is reported as “Not Active”.
As to `NC(=O)c1cccnc1` [NIACINAMIDE], the IC50 result (at D(1A) dopamine receptor (cho); in data set [1]; in data set [2]; in data set [3] (reticulocytes); on Cytochrome P450 2E1; in data set [4]) was “Not Active” throughout. Further, the Ki entry at Cytochrome P450 2E1 is on record as “Not Active”.
On to `CS(=O)(=O)Nc1ccc([N+](=O)[O-])cc1Oc1ccccc1` [NIMESULIDE], for which the IC50 entry (at D(1A) dopamine receptor (cho); in data set [1]; in data set [2]; in data set [3] (reticulocytes); against Cytochrome P450 2E1; in data set [4]) was “Not Active” throughout. Moreover, the Ki result at Cytochrome P450 2E1 is “Not Active”.
Turning to `CN1C(=O)CN=C(c2ccccc2)c2cc([N+](=O)[O-])ccc21` [NIMETAZEPAM], the IC50 result (on D(1A) dopamine receptor (cho); in data set [1]; in data set [2]; in data set [3] (reticulocytes); at Cytochrome P450 2E1; in data set [4]) was “Not Active” throughout. Besides, the inhibition constant Ki entry at Cytochrome P450 2E1 was “Not Active”.
